# Test results taken from patent publication US5457051A, “Enantioselective hydrolysis of ketoprofen esters by beauveria bassiana and enzymes derived therefrom” (Sepracor, Inc., priority 1993, dated 1995).
# Starred links: 1 amine or outer side, 2 acyl side, 3 side chain; linkers in the order of their positions; H or OH if unused. Residues, ends and D or L forms follow the SMILES beside them. *: point of attachment. pNA = O=[N+]([O-])c1ccc(N*)cc1; Suc = O=C(CCC(=O)[*:2])[*:1]
# Experiments:
# [1] = test system: Beauveria ester hydrolase; assay: Km from the activity of the preparation at different concentrations of substrate; assay type: biochemical, Beauveria bassiana; details: partially purified enzyme preparation
# [2] = test system: Beauveria ester hydrolase; assay: Substrate specificity of the enzyme preparation (Table 9; lipase and protease substrates); assay type: biochemical, Beauveria bassiana; details: compound used as substrate
# Description: A one-mL (final volume) reaction mixture contained ketoprofen choline ester (6 mg), NaPi buffer (200 mM, pH 6.5), and 150 mg of whole cells or pellet, or 300 μL cell crude extract. The reaction was carried out at 30° C. in a shaker with a reciprocal speed of 169 rpm. Routine assays of the enzyme were performed by using p-nitrophenyl ketoprofen as a substrate at 30° C.
# (§1) Although the enzyme hydrolyzes the water-soluble choline ester, it appears that the enzyme might be a lipase.
# [3] = test system: Beauveria ester hydrolase; assay: Sensitivity of the enzyme to PMSF; assay type: biochemical, Beauveria bassiana
# Source text: as §1
# [4] = test system: Beauveria ester hydrolase; details: at 40 mM acid; partially purified enzyme preparation
smiles,measurement,setting,value
CC(C(=O)OCC[N+](C)(C)C)c1cccc(C(=O)c2ccccc2)c1 (racemic) [ketoprofen choline ester],estimated km,[1],4.96 mM
C[C@H](NC(=O)CCC(=O)O)C(=O)N[C@@H](C)C(=O)N1CCC[C@H]1C(=O)N[C@@H](Cc1ccccc1)C(=O)Nc1ccc([N+](=O)[O-])cc1 [N-succinyl-ala-ala-pro-phe-p-nitroaniline] (Suc-AAPF-pNA),hydrolysis of the substance by the enzyme preparation (in words),[2],does not hydrolyze
"O=S(=O)(F)Cc1ccccc1 [PMSF, phenylmethylsulfonylfluoride]",sensitivity of the enzyme to the inhibitor (in words),[3],sensitive
"C[C@@H](C(=O)O)c1cccc(C(=O)c2ccccc2)c1 [acid product, R-ketoprofen]",inhibition of the enzyme by reaction product,[4],approximately 45%
CC(=O)Oc1ccc([N+](=O)[O-])cc1 [p-nitrophenyl acetate],Enzymic activity (n mole substrate hydrolyzed/min/mL enzyme),[2],215 n mole substrate hydrolyzed/mi
CCCCCCCCCCCCCCCC(=O)Oc1ccc([N+](=O)[O-])cc1 [p-nitrophenyl palmitate],Enzymic activity (n mole substrate hydrolyzed/min/mL enzyme),[2],7496 n mole substrate hydrolyzed/mi
